Key:
[1] = tested on: arterial papillary muscle; test: Positive inotropic effect, blood-perfused arterial papillary muscle; design: species or system dog; conditions: Canis lupus familiaris, into septal artery, read-out: Increasing of inotropic
Procedure: Positive inotropic effects of the novel carbostyril derivatives of the present invention were tested according to a method described by M. Endoh and K. Hashimoto, in "American Journal of Physiology", Vol. 218, No. 5, May, 1970, pages 1459-1463 as follows:
Adult bastard dogs of both sexes, weighing 8-12 kg, were anesthetized with pentobarbital-Na at a rate of 30 mg/kg by intraveneous administration. After another intraveneous administration of sodium heparin, 1,000 μ/kg, the test dog was sacrificed by blood letting. The heart of the dog was excised and immediately plunged into Locke's solution, then the arterial papillary muscle was excised out with interventicular septum. The septal artery was carefully isolated and cannulated with a polyethylene cannula and was ligated with thread. Septal arteries those of connected to other than the arterial papillary muscle were ligated with thread. Next, the donor adult bastard dogs, weighing 18-27 kg, were anesthetized with pentabarbital-Na (30 mg/kg, intraveneous injection), and further treated with intravenous administration of sodium heparin (1,000 μ/kg). The arterial papillary muscle was perfused through the septal artery being cannulated with the polyethylene cannula with the blood conducted from the carotid artery of the donor dog by aid of Peristaric pump. The perfusion pressure was maintained at 100 mmHg constantly. Then the muscle was electrically stimulated by an electronic stimulator through bipolar electrodes in contact with the interventicular septum. The strength of stimulation was 2 X (the minimum value for appearing the action), frequency 2 Hz, pulse duration 2 msec.
The isometric contraction generated was measured through a force-displacement transducer. The amount of blood flow in the coronary arteries was measured by determining the amount of the blood flow conducted to the septal artery by electromagnetic flow meter. All the data were recorded on an ink-writing recorder.
A solution containing a compound to be tested was injected into the septal artery through the rubber tube connected close to the shunk of the polyethylene cannula, in an amount of 10-30 μl.
The results obtained is shown in Table 4, in which the increasement (%) of contraction is indicated as the ratio of the contractions before and after the administration (injection) of the solution containing the test compound.

Wistar strain male rats = test: Test of increasing effect of heart rate; type: in vivo, rat; conditions: 30 mg/kg oral, 60 minutes after the administration
Procedure: Wistar strain male rats, having 180-230 g of body weight, were abstained from food for 24 hours, the electrocardiograms introduced from the second induction period were recorded on oscillograph. The heart rate was calculated from the electrocardiograms by observing them for 10 seconds several times. […] 60 Minutes after the administration, the heart rate was measured and increasing effect of the heart rate was calculated. Generally, an average heart rate of an usual Wistar strain male rat is about 320 beat/minute.

[2] = tested on: ADP-induced aggregation in rabbit platelet; test: Inhibition effect on ADP-induced aggregation in rabbit platelet; type: cell-based; conditions: Oryctolagus cuniculus, Platelet
Summary of the method: (§1)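 Aggregation was followed by transmittance at 37 °C with 1,100 rpm stirring, using rabbit PRP preincubated 1 min with test compound. Inhibition was expressed relative to controls, with aspirin as comparator.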

[3] = tested on: collagen-induced aggregation in rabbit platelet; test: Inhibition effect on collagen-induced aggregation in rabbit platelet; type: cell-based; conditions: Oryctolagus cuniculus, Platelet, read-out: Inhibition effect on collagen-induced aggregation
Summary of the method: as §1

[4] = tested on: Gold blatt type renoprival hypertension rats (RHR); test: Hypotensive effect, Tail-cuff method, RHR; type: in vivo, rat; conditions: 30 mg/kg oral, mean value ± standard deviation
Procedure: (§2) Hypotensive effect of the compounds were measured by determining the maximum blood pressure of the test animals according to a procedure of Tail-cuff method.
(§3) Test animals used were the following two types.
(1) Gold blatt type renoprival hypertension rats (RHR)
Wistar strain male rats having, 160-180 g of body weight, were anesthetized with ether and the left-side renal artery was pluged with a silver clip having 0.2 mm inside diameter, while the right-side renal artery was kept as it was without operation. Four (4) weeks after the operation, rats having the maximum blood pressure over 150 mmHg were selected and used as test animals which were abstained from food for overnight.
(§4) Each of compounds to be tested were administered orally and the blood pressure was measured before the administration and 1, 2, 4, 6 and 8 hours after the administration. The blood pressure was measured by using Recorder (Rectihoriz type 8S, San-ei Instrument) and Electrosthygmomanometer PE-300 (Macro Bio-systems, Houston, Tex.).

[5] = tested on: Deoxycorticosteroneacetate (DOCA)/saline hypertension rats (DHR); test: Hypotensive effect, Tail-cuff method, DHR; type: in vivo, rat; conditions: 30 mg/kg oral, mean value ± standard deviation
Procedure: as §2, §3
(2) Deoxycorticosteroneacetate (DOCA)/saline hypertension rats (DHR)
Wistar strain male rats having 150-170 g of body weight, were anesthetized with ether and the left-side kidney was enucleated. One (1) week after the operation, 10 mg/kg of DOCA was injected subcutaneously once a week and 1% NaCl aqueous solution was given as drinking water. Five (5) weeks after the operation, rats having the maximum blood pressure over 150 mmHg were selected and used as test animals which were abstained from food for overnight.
as §4

SMILES: O=C(CCCOc1ccc2[nH]c(=O)ccc2c1)N(CCO)C1CCCCC1 [No. 1, 6-{3-[N-(2-hydroxyethyl)-N-cyclohexylaminocarbonyl]propoxy}carbostyril]
- activation at 3 nmol ([1]; dosage 3 n mol): 8.2%
- activation at 30 nmol ([1]; dosage 30 n mol): 54.5%
- Increasing effect of heart rate (Wistar strain male rats): 42 Beat/min.
- inhibition at 100 µM ([2]; concentration of the test compound solution 10^-4 mole): 100%
- inhibition at 10 µM ([2]; concentration of the test compound solution 10^-5 mole, read-out: Inhibition effect on ADP-induced aggregation): 86%
- inhibition at 1 µM ([2]; concentration of the test compound solution 10^-6 mole, read-out: Inhibition effect on ADP-induced aggregation): 45%
- inhibition at 10 µM ([3]; concentration of the test compound solution 10^-5 mole): 100%
- inhibition at 1 µM ([3]; concentration of the test compound solution 10^-6 mole): 100%
- inhibition at 0.1 µM ([3]; concentration of the test compound solution 10^-7 mole): 60.1%
- Maximum blood pressure after the administration (difference) ([4]; 1 hour): -27.0 ± 14.0 mmHg
- Maximum blood pressure after the administration (difference) ([4]; 2 hours): -28.6 ± 16.4 mmHg
- Maximum blood pressure after the administration (difference) ([4]; 4 hours): -32.4 ± 15.2 mmHg
- Maximum blood pressure after the administration (difference) ([4]; 6 hours): -35.0 ± 11.5 mmHg
- Maximum blood pressure after the administration (difference) ([4]; 8 hours): -41.3 ± 17.2 mmHg
- Maximum blood pressure after the administration (difference) ([5]; 1 hour): -46.0 ± 11.7 mmHg
- Maximum blood pressure after the administration (difference) ([5]; 2 hours): -42.6 ± 6.5 mmHg
- Maximum blood pressure after the administration (difference) ([5]; 4 hours): -37.6 ± 5.2 mmHg
- Maximum blood pressure after the administration (difference) ([5]; 6 hours): -34.4 ± 10.5 mmHg
- Maximum blood pressure after the administration (difference) ([5]; 8 hours): -29.0 ± 10.5 mmHg

— patent US4435404A, “Carbostyril derivatives” (priority 1980, dated 1984)
